Reference: US20160243223A1, “METHODS FOR TREATING CANCERS COMPRISING K-RAS MUTATIONS” (OncoMed Pharmaceuticals, Inc., priority 2009, published 2016)

B1: 21M18 H7L2: humanized form of the murine 21M18 antibody; anti-human DLL4 antibody (antibody, V domains shown)
VH: QVQLVQSGAEVKKPGASVKISCKASGYSFTAYYIHWVKQAPGQGLEWIGYISSYNGATNYNQKFKGRVTFTTDTSTSTAYMELRSLRSDDTAVYYCARDYDYDVGMDYWGQGTLVTVSS
VL: DIVMTQSPDSLAVSLGERATISCRASESVDNYGISFMKWFQQKPGQPPKLLIYAASNQGSGVPDRFSGSGSGTDFTLTISSLQAEDVAVYYCQQSKEVPWTFGGGTKVEIK

What was measured:
[1] = tested on: C9 colon tumor; experiment: C9 colon tumor recurrence xenograft model; assay type: in vivo, NOD/SCID mice; conditions: treatment from 2 days after injection; antibody 10 mg/kg twice a week, irinotecan […] once a week, intraperitoneally; FIG. 4
Protocol: Starting 2 days after injection, mice were treated with irinotecan alone (Δ) or anti-human DLL4 antibody (21M18 […]) plus irinotecan (▾). Treatment in both groups was discontinued on the indicated day and tumor growth was monitored for an additional period of time. […] Both antibodies and chemotherapeutic agents were administered intraperitoneally. Tumor growth was measured with electronic calipers at the indicated time points.

[2] = tested on: PN8 pancreatic tumor; experiment: PN8 pancreatic tumor recurrence xenograft model after gemcitabine; assay type: in vivo, NOD/SCID mice; conditions: after gemcitabine 100 mg/kg once a week for 4 weeks; antibodies 10 mg/kg once a week from day 53; vs control antibody; FIG. 5
Protocol: The PN8 pancreatic tumor was determined to have a K-ras mutation, a glycine to aspartic acid mutation at codon 12, that is a known activating mutation. Anti-DLL4 antibodies were tested for efficacy in this xenograft tumor model. Dissociated PN8 pancreatic tumor cells (10,000 cells) were injected subcutaneously into the flanks of 6-8 week old NOD/SCID mice. Tumors were allowed to grow for 28 days until they reached an average volume of 173 mm^3. […] On day 53, the gemcitabine treatments were stopped and antibody treatments initiated. Mice were treated with control antibody ([…]), anti-mouse DLL4 antibody (21R30) (▾), anti-human DLL4 antibody (21M18 H7L2) (▴), or a combination of anti-mouse DLL4 antibody and anti-human DLL4 antibody (21R30+21M18 H7L2) (□). […] Both antibodies and chemotherapeutic agents were administered intraperitoneally. Tumor growth was measured with electronic calipers at the indicated time points.

| Molecule | tumor growth after cessation of treatment [1] | tumor recurrence after chemotherapy [2] |
| --- | --- | --- |
| CCc1c2c(nc3ccc(OC(=O)N4CCC(N5CCCCC5)CC4)cc13)-c1cc3c(c(=O)n1C2)COC(=O)[C@]3(O)CC [Irinotecan, irinotecan] | tumor growth progressed |  |
| B1 |  | more substantial effect in inhibiting and/or delaying tumor re-growth |
